Reference: patent US8058313B2, “Alpha, beta-unsaturated sulfones, sulfoxides, sulfonimides, sulfinimides, acylsulfonamides and acylsulfinamides and therapeutic uses thereof” (Temple University—Of The Commonwealth System of Higher …, priority 2004, dated 2011)

What was measured:
[1] = biological target: recombinant FLT1 active protein (Homo sapiens, UniProt P17948); assay: In vitro filter assay for FLT1 kinase activity; type: biochemical; conditions: 30 min preincubation at room temperature, kinase reaction 20 min at 30° C., 100 μM ATP, 250 μM IGF-1Rtide, triplicate
Sequence of recombinant FLT1 active protein (P17948 27-1338): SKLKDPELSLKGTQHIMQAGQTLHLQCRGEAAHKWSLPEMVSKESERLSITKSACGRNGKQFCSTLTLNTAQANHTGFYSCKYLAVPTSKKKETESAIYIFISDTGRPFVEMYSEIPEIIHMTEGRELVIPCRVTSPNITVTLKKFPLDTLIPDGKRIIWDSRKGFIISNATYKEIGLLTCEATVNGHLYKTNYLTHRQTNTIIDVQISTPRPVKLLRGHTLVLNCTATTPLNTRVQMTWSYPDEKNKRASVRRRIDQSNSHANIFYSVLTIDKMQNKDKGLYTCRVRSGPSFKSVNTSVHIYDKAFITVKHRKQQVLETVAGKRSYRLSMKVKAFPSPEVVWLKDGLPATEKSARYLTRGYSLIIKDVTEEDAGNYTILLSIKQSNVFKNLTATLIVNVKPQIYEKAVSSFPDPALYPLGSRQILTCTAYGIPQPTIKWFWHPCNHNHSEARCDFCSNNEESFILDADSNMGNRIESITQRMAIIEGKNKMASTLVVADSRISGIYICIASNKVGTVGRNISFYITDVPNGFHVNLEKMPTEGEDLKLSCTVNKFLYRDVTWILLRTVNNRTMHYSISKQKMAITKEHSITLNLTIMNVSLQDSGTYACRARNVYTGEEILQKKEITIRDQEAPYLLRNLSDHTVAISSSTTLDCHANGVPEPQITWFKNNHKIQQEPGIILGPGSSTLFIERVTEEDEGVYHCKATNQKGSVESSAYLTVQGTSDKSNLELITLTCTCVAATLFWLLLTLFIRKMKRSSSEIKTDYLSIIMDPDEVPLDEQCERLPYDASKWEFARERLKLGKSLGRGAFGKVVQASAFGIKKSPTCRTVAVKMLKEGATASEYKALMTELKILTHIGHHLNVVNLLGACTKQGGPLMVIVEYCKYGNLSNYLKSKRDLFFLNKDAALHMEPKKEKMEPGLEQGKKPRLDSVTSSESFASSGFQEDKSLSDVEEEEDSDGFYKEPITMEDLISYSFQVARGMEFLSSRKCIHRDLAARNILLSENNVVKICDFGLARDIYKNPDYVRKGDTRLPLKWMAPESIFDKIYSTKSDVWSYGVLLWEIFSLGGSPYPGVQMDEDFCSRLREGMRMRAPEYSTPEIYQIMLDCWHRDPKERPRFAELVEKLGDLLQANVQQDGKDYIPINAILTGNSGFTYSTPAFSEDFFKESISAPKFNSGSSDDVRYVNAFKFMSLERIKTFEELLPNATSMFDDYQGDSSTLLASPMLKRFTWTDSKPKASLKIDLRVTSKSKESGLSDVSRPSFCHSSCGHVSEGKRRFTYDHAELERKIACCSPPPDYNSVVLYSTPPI
Protocol: The inhibition of FLT1 by compounds according to Formula I was assessed by employing an in vitro filter assay for FLT1.
Compounds 1-15 were prepared as 10 mmol stock solutions in DMSO. Curcumin was also prepared as a 10 mmol stock solution for testing in the FLT1 assay. Five units of recombinant FLT1 active protein was incubated with different concentrations of each compound in a 15 μl reaction mixture (50 mM HEPES, 10 mM MgCl2, 1 mM EDTA, 2 mM Dithiothreitol 0.01% NP-40 pH 7.5) for 30 minutes at room temperature (25° C). Kinase reactions were performed for 20 minutes at 30° C. in a volume of 20 μl (15 μl enzyme+compound of Formula I, 2 μl 1 mM ATP (100 μM final concentration), 2 μl of γ 32^pATP (40 μci final concentration) and 250 μM of IGF-1Rtide. 10 μl aliquots of the kinase reaction were spotted onto the center of a filter (2 cm×2 cm P81 phosphocellulose paper square). After 30 seconds, the filters were washed with 0.75% phosphoric acid (3×5 minutes) and once with acetone (5 minutes). The wet filters were transferred into a scintillation vial containing scintillation cocktail ^32P (5 mL). Radioactivity was determined using a scintillation counter. Control analyses were performed with DMSO stock solutions containing no compound. Binding values were corrected for non-specific binding by performing duplicate assays in the absence of FLT1 enzyme and subtracting the non-specific binding values from the values obtained in the presence of FLT1. Counts per minute (CPM) of aliquots containing a compound of Formula I were compared with CPM of control samples. The kinase activity is expressed in percent of the maximal kinase activity. […] All assays were carried out in triplicate.

[2] = test system: androgen receptor negative prostate (DU145) cell line; assay: Effect on growth of human tumor cells in culture (viable cells, Trypan blue exclusion); type: cell-based; conditions: five concentrations (1-100 μM range), read from dose response curve
Protocol: The effect of compounds according to Formula I on the growth of human tumor cells in culture was evaluated using the androgen receptor negative prostate (DU145) cell line. The cell culture was maintained at 37° C. in a humidified atmosphere of 5% CO2.
Cells were treated with compounds according to Formula I at five different concentrations (1-100 μM range) for each compound. For comparison, the cells were treated with curcumin at the same concentrations. The dose response was established by determining the number of viable cells after 96 h of continuous treatment against each of the different test concentrations of each compound. The determination of viable cells was done by the Trypan blue exclusion method. Activity for each compound at each concentration is reported as a percentage of cells that remain viable.
The GI50 values were determined by direct extrapolation from each dose response curve.

[3] = Homo sapiens, DU-145, 96 h continuous treatment

| IC50 [1] [µM] | GI50 [2, 3] [µM] | Compound | GI50 ([2]; 96 h continuous treatment) [µM] |
| --- | --- | --- | --- |
| > 10 | – | O=S(=O)(/C=C/c1ccc(I)cc1)CS(=O)(=O)/C=C/c1ccc(I)cc1 [Example 10, bis((E)-4-Iodostyrylsulfonyl)methane] | – |
| 35 | 35 | COc1cc(/C=C/C(=O)CC(=O)/C=C/c2ccc(O)c(OC)c2)ccc1O [curcumin, reference compound] | – |
| 0.281 | 75 | COc1cc(OC)c(/C=C/S(=O)(=O)CS(=O)(=O)/C=C/c2c(OC)cc(OC)cc2OC)c(OC)c1 [Example 2, bis((E)-2,4,6-Trimethoxystyrylsulfonyl)methane] | – |
| 3.89 | < 10 | COc1cc(/C=C/S(=O)(=O)CS(=O)(=O)/C=C/c2ccc(O)c(OC)c2)ccc1O [Example 1, 4-((1E)-2-(((E)-4-Hydroxy-3-methoxystyrylsulfonyl)methylsulfonyl)vinyl)-2-methoxyphenol] | – |
| 11.2 | < 10 | O=S(=O)(/C=C/c1ccsc1)CS(=O)(=O)/C=C/c1ccsc1 [Example 8, bis((E)-2-(Thiophen-3-yl)vinylsulfonyl)methane] | – |
| 51 | 10 to 25 | O=S(=O)(/C=C/c1ccc(Cl)cc1)CS(=O)(=O)/C=C/c1ccc(Cl)cc1 [Example 6, bis((E)-4-Chlorostyrylsulfonyl)methane] | – |
| 2.23 | < 10 | O=S(=O)(/C=C/c1ccc(F)cc1F)CS(=O)(=O)/C=C/c1ccc(F)cc1F [Example 4, bis((E)-2,4-Difluorostyrylsulfonyl)methane] | – |
| 0.162 | 25 to 50 | N#Cc1ccc(/C=C/S(=O)(=O)CS(=O)(=O)/C=C/c2ccc(C#N)cc2F)c(F)c1 [Example 3, 4-((1E)-2-(((E)-2-Fluoro-4-cyanostyrylsulfonyl)methylsulfonyl)vinyl)-3-fluorobenzonitrile] | – |
| 12.8 | 25 to 50 | COc1cccc(OC)c1/C=C/S(=O)(=O)CS(=O)(=O)/C=C/c1c(OC)cccc1OC [Example 5, bis((E)-2,6-Dimethoxystyrylsulfonyl)methane] | – |
| > 100 | < 10 | O=S(=O)(/C=C/c1ccc(F)cc1)CS(=O)(=O)/C=C/c1ccc(F)cc1 [Example 11, bis((E)-4-Fluorostyrylsulfonyl)methane] | – |
| > 100 | 10 to 25 | O=S(=O)(/C=C/c1ccccc1)CS(=O)(=O)/C=C/c1ccccc1 [Example 9, bis((E)-Styrylsulfonyl)methane] | – |
| 0.316 | < 10 | O=S(=O)(/C=C/c1ccc(Br)cc1)CS(=O)(=O)/C=C/c1ccc(Br)cc1 [Example 7, bis((E)-4-Bromostyrylsulfonyl)methane] | – |
| > 10 | 7.5 | COc1cc(/C=C/S(=O)(=O)CS(=O)(=O)/C=C/c2cc(OC)c(OC)c(OC)c2)cc(OC)c1OC [Example 14, bis((E)-3,4,5-Trimethoxystyrylsulfonyl)methane] | – |

| Compound | IC50 [1] [µM] | GI50 [2, 3] [µM] | GI50 ([2]; 96 h continuous treatment) [µM] |
| --- | --- | --- | --- |
| bis((E)-Perfluorostyrylsulfonyl)methane [Example 13] | 0.416 | – | < 2.5 |
| 4-((1E)-2-(((E)-4-hydroxy-2,6-dimethoxystyrylsulfonyl)methylsulfonyl)vinyl)-3,5-dimethoxyphenol. [Example 15] | 0.077 | – | < 1 |
